In ChEMBL document CHEMBL1201862, “PubChem BioAssay data set” (2004) one finds IC50 data, which are given here for two compounds.

The structures appear in SMILES notation. The source made the active and inactive calls. Rule as the data show it: actives have a measured IC50 and inactives only a lower limit.

In this assay the target is Envelope glycoprotein gp160 (Human immunodeficiency virus 1, UniProt Q6QLK5). The assay is described as follows: inhibitors of HIV fusion peptide binding, primary screen, biochemical, uHTS, fluorescence dequenching (AID 1986).
Sequence of Envelope glycoprotein gp160 (Q6QLK5 whole entry, the tested form may be a part): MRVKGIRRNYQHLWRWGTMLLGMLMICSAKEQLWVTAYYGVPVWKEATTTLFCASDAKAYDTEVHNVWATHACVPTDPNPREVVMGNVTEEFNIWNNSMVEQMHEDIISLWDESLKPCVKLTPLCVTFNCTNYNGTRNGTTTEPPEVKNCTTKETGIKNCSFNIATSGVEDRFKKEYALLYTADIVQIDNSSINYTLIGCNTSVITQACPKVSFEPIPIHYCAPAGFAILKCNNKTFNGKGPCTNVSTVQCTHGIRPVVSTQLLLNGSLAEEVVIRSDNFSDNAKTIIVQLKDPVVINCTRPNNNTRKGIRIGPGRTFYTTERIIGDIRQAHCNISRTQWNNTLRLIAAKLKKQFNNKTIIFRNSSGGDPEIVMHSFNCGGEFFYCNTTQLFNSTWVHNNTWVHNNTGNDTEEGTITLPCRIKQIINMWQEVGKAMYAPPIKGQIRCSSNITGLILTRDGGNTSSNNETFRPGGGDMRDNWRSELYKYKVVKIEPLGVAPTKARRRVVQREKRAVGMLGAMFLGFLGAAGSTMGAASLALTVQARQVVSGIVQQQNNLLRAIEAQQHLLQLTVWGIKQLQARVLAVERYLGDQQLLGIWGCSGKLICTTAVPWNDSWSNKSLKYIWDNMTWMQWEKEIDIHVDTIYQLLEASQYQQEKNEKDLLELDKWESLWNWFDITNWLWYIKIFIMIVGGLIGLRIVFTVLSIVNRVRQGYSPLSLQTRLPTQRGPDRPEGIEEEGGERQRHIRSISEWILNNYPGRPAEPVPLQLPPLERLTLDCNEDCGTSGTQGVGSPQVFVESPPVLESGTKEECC

Usually IC50 stands for the concentration needed to halve the response being measured. In the case of `CN(C)S(=O)(=O)c1cccc(-c2nn(-c3ccccc3)cc2/C=C2\SC(=S)N(CC(=O)O)C2=O)c1`, the 50% inhibitory concentration (IC50) is 15.3 µM (active).
The figure for `CC1=C(C(=O)OC(C)C)C(c2ccc(Cl)cc2)n2c(s/c(=C\c3ccc(OCC(=O)O)cc3)c2=O)=N1` (configuration not stated) is 13.4 µM (active).
